Results: a compilation of properties of binary mixtures (doi:10.1016/j.molliq.2019.111804)

Experiment: xn = mol fraction of the nth substance listed
Details: 101 kPa

CCCC[n+]1ccn(C)c1.[Cl-] + CO
electrical conductivity [S/m]
Details	x1 = 0.0011	x1 = 0.0022	x1 = 0.0035	x1 = 0.0045	x1 = 0.0056	x1 = 0.0068	x1 = 0.008	x1 = 0.0092	x1 = 0.0104
293.15 K	0.18	0.34	0.48	0.6	0.72	0.83	–	1.02	1.13
303.15 K	0.2	0.38	0.53	–	0.79	0.9	1.01	1.11	1.22
313.15 K	0.23	–	–	0.75	0.87	1.01	1.12	1.23	1.33
323.15 K	0.26	0.48	0.67	–	0.96	1.1	1.24	1.35	1.45

CO + CCCC[n+]1ccn(C)c1.[Cl-]
x2 = 0
Details	electrical conductivity [S/m]
293.15 K	0.003
303.15 K	0.004
313.15 K	0.007
323.15 K	0.011
